Measurements published in patent US9422303B2, “Formulations of water-insoluble chemical compounds and methods of using a formulation of compound FL118 for cancer therapy” (Health Research, Inc., priority 2010, dated 2016).

Experiments:
[1] = Solubility testing in DMSO, ethanol, water
[2] = system: human tumor xenografts; assay: Antitumor activity/toxicity in human tumor mouse models (general statements); type: in vivo; conditions: example: SCID mice, primary colon 11124 and 14528, weekly×4 (FIG. 15)
Experimental: (§1) Six to 12-week-old female athymic nude mice (nu/nu, body weight 20-25 g) were purchased from Charles River Laboratories International, Inc. (Wilmington, Mass.) or Harlan Sprague Dawley Inc. (Indianapolis, Ind.). Six to 12-week-old female SCID mice were purchased from Roswell Animal facility (DLAR). Mice were housed at 5 mice per cage with water and food ad libitum. All animal experiments are performed in accordance with our IACUC-approved animal protocol.
Human tumor xenografts were initially established by injecting s.c 1×10^6 cultured cancer cells. The xenografts were then passed several generations by transplanting 40-50 mg non-necrotic tumor tissues via a trocar from the passage tumors. […]
(§2) Two axes (mm) of a tumor (L, longest axis; W, shortest axis) were measured with a Vernier caliper. […]
(§3) Antitumor activity was assessed by maximum tumor growth inhibition (MTGI), which is the mean tumor weight difference between treated group (MTWTG) and untreated control group (MTWCG) at the same time. The calculated formula is “MTGI=(MTWTG−MTWCG)÷MTWCG×100%”. […] Tumor response was expressed as 1) partial tumor response (PR) when tumor weight was reduced at least 50% initial tumor size on Day 0 and 2) complete tumor response (CR) which was defined as inability to detect tumor via palpitation at the initial tumor-transplanted site. […]

[3] = system: human 17073 primary head & neck xenografts; assay: Antitumor activity and toxicity in SCID mice bearing human 17073 primary head & neck xenografts; type: in vivo; conditions: at MTD
Text: FIG. 2 Comparison of antitumor activity and toxicity (body weight loss) of FL118 with irinotecan in SCID mice bearing human 17073 primary head & neck xenografts: A and B. Antitumor activity and toxicity of FL118 and irinotecan against 17073 tumors. C, D and E. Individual 17073 tumor in response to FL118 and irinotecan. The treatment schedule was weekly×4 as indicated by arrows. The doses for FL118 and irinotecan were their MTD in the weekly×4 schedule.
(§4) Human tumor xenografts were initially established by injecting s.c 1×10^6 cultured cancer cells. The xenografts were then passed several generations by transplanting 40-50 mg non-necrotic tumor tissues via a trocar from the passage tumors. Human primary tumors were initially obtained from cancer patients at Roswell Park Cancer Institute and established in SCID mice. Human tumor xenografts used in this study include human head & neck squamous cell carcinoma FaDu, human primary head & neck tumor 17073, human ileocecal adenocarcinoma HCT-8, human colon cancer SW620 and human primary colon cancer 11124 and 14528. Treatment was initiated 7 days after tumor transplantation when the tumor reaches 200-250 mg, at which the treatment was designated as Day 0. All cancer cells used for tumor establishment were tested for mycoplasma free. The transplantable tumor has similar histological profile of cultured cells.
Two axes (mm) of a tumor (L, longest axis; W, shortest axis) were measured with a Vernier caliper. Tumor weight (mg) was estimated using a formula of “tumor weight=½ (L×W^2)”. […]
as §3

[4] = system: human FaDu head and neck tumor xenografts; assay: Antitumor activity in nude mice bearing human FaDu head and neck tumor xenografts; type: in vivo; conditions: one-time i.p. injection at about MTD (FIG. 1)
Experimental: as §1
FL118 was first dissolved in DMSO at a concentration of 1 mg/ml, and further diluted in a fresh Tween-80/saline solution. The final work solution consists of FL118 (0.05 mg/ml), 75% saline (V/V), 20% Tween-80 (V/V) and 5% DMSO (V/V). […]
as §2, §3

[5] = irinotecan, stated without source; cited from earlier work
[6] = system: human HCT-8 colon tumor xenografts; assay: Antitumor activity in nude mice bearing human HCT-8 colon tumor xenografts; type: in vivo
Experimental: as §1
FL118 was first dissolved in DMSO at a concentration of 1 mg/ml, and further diluted in a fresh Tween-80/saline solution. The final work solution consists of FL118 (0.05 mg/ml), 75% saline (V/V), 20% Tween-80 (V/V) and 5% DMSO (V/V). Control solution (placebo or vehicle) is 75% saline, 20% Tween-80 and 5% DMSO without FL118. Other FDA-approved anticancer drugs used in this invention for a comparison were used clinical formulations from the corresponding manufactures.
as §4
The following schedules were used: 1) i.p. daily×2: once a day for consecutive 2 days; 2) i.p. daily×3: once a day for consecutive 3 days; 3) daily×5: once a day for consecutive 5 days (i.p. or p.o.); 4) i.p.×3 (day 0, 2, 4): 3 times on day 0, 2, and 4; 5) i.p. 2 days/week×¾: 2 times a week for 3 or 4 consecutive weeks; 6) weekly×4: once a week for 4 consecutive weeks (i.p. or p.o.); 7) i.p. biweekly×4: once every two weeks for 8 weeks; 8) 2 days/week×4: give 2 times a week for 4 weeks; and 9) i.p.×1: one time drug i.p. injection on Day 0.
Two axes (mm) of a tumor (L, longest axis; W, shortest axis) were measured with a Vernier caliper. Tumor weight (mg) was estimated using a formula of “tumor weight=½ (L×W^2)”. Tumor measurement was taken daily for the first two weeks and/or during the FL118 treatment period (with the exception of weekend) and then three times a week for the following two weeks of post therapy and twice a week thereafter.
Antitumor activity was assessed by maximum tumor growth inhibition (MTGI), which is the mean tumor weight difference between treated group (MTWTG) and untreated control group (MTWCG) at the same time. The calculated formula is “MTGI=(MTWTG−MTWCG)÷MTWCG×100%”. The tumor doubling time (TDT) was defined as the mean time for the tumor reaching twice its initial weight from the time beginning the treatment (Day 0). Tumor response was expressed as 1) partial tumor response (PR) when tumor weight was reduced at least 50% initial tumor size on Day 0 and 2) complete tumor response (CR) which was defined as inability to detect tumor via palpitation at the initial tumor-transplanted site. […]

SMILES	solubility in ethanol [1]	antitumor activity, comparison of FL118, FL113 and irinotecan [2]	body weight loss (toxicity) ([3]; weekly×4)	tumor relapse after complete response ([3]; weekly×4)	mice with complete response ([3]; weekly×4, 5 mice per group) [%]	antitumor activity compared with FDA-approved drugs [4]	MTD [5] [mg/kg]	CR ([6]; 100 mg/kg, i.p. weekly × 4) [%]	MTGI ([6]; 100 mg/kg, i.p. weekly × 4) [%]	PR ([6]; 100 mg/kg, i.p. weekly × 4) [%]	TDT ([6]; 100 mg/kg, i.p. weekly × 4) [days]	antitumor activity compared with FDA-approved drugs ([6]; one-time i.p. injection at about MTD (FIG. 1))
CCC1(O)C(=O)OCc2c1cc1n(c2=O)Cc2cc3cc4c(cc3nc2-1)OCO4 (racemic) [FL113, 10H,12H-1,3-Dioxolo[4,5-g]pyrano[3′,4′:6,7]indolizino[1,2-b]quinoline-8,11(7H,10H)-dione, 7-ethyl-7-hydroxy-, (+-)]	poorly dissolve in ethanol	better than irinotecan in most cases										
CCc1c2c(nc3ccc(OC(=O)N4CCC(N5CCCCC5)CC4)cc13)-c1cc3c(c(=O)n1C2)COC(=O)[C@]3(O)CC [Irinotecan, irinotecan]			accumulated body weight loss	rapid relapse	40	second most effective compound	100 to 200	0	94.1 ± 3.6	60	32.7 ± 11.5	second most effective compound
